Measured values from the OligoGym collection.
Several values for one entry are separate records, joined by “and”; a condition that tells them apart may be missing. Equal entries are not always repeated. After the bases stand the sugars from the 5' end (letter, count) and the backbone: PS all phosphorothioate, else s phosphorothioate and o phosphodiester by linkage. Methylation of C is not given here. e = 2'-O-(2-methoxyethyl) (MOE); k = constrained ethyl (cEt); d = 2'-deoxy (DNA)

Target: SOD1
Conditions: ASO

CGATCCCAATTACACCA (sugars e3 k2 d7 k2 e3, PS)
target mRNA inhibition (HepG2, 3 µM): 12%

CGCCCTTCAGCACGCACACG (sugars e5 d10 e5, PS)
target mRNA inhibition (HepG2, 0.1875 µM): 0% | target mRNA inhibition (HepG2, 0.75 µM): 2% | target mRNA inhibition (HepG2, 3 µM): 28% | target mRNA inhibition (HepG2, 4 µM): 23% | target mRNA inhibition (HepG2, 12 µM): 92%

CGTCGCCCTTCAGCACG (sugars e2 k2 d8 k2 e3, PS)
target mRNA inhibition (HepG2, 4 µM): 52%

CTACAGGTACTTTAAAG (sugars e2 k2 d8 k2 e3, PS)
target mRNA inhibition (HepG2, 5 µM): 2%

CTCACTACAGGTACTTT (sugars e2 k2 d8 k2 e3, PS)
target mRNA inhibition (HepG2, 5 µM): 40%

CTCACTACAGGTACTTTAAA (sugars e5 d10 e5, PS)
target mRNA inhibition (HepG2, 5 µM): 25%

CTCATAATAAGTGCCAT (sugars e2 k2 d8 k2 e3, PS)
target mRNA inhibition (HepG2, 5 µM): 30%

CTCCGCGACTACTTTATAGG (sugars e5 d10 e5, PS)
target mRNA inhibition (HepG2, 4 µM): 27%

CTCCGCGCCTCGCCCACTCT (sugars e5 d10 e5, PS)
target mRNA inhibition (HepG2, 4 µM): 40%

CTCTCTTCATCCTTTGG (sugars e3 k2 d7 k2 e3, PS)
target mRNA inhibition (HepG2, 3 µM): 2%

CTGGCAAAATACAGGTC (sugars e2 k2 d8 k2 e3, PS)
target mRNA inhibition (HepG2, 5 µM): 25%

CTGTATTATCTCCAAACTCA (sugars e5 d10 e5, PS)
target mRNA inhibition (HepG2, 5 µM): 32% and 28%

CTTCAATAGACACATCGGCC (sugars e5 d10 e5, PS)
target mRNA inhibition (HepG2, 5 µM): 39% and 16%

CTTCCCCACACCTTCA (sugars kekeddddddddekek, linkages s1 o3 s8 o1 s2)
target mRNA inhibition (A431, 0.12 µM): 0% | target mRNA inhibition (A431, 0.6 µM): 8% | target mRNA inhibition (A431, 3 µM): 8% | target mRNA inhibition (A431, 15 µM): 18% | target mRNA inhibition (HepG2, 0.222 µM): 8% | target mRNA inhibition (HepG2, 0.667 µM): 14% | target mRNA inhibition (HepG2, 2 µM): 51% | target mRNA inhibition (HepG2, 6 µM): 76%

CTTTGGCCCACCGTGTT (sugars e3 k2 d7 k2 e3, PS)
target mRNA inhibition (HepG2, 3 µM): 41%

CTTTTAATAGCCTCATA (sugars e2 k2 d8 k2 e3, PS)
target mRNA inhibition (HepG2, 5 µM): 45%

CTTTTAATAGCCTCATA (sugars e2 k2 d9 k2 e2, PS)
target mRNA inhibition (HepG2, 5 µM): 34%

GACACATCGGCCACACCATC (sugars e5 d10 e5, PS)
target mRNA inhibition (HepG2, 5 µM): 45% and 30%

GACCTGCACTGGTACAG (sugars e3 k2 d7 k2 e3, PS)
target mRNA inhibition (HepG2, 3 µM): 7%

GACTACGACGCAAACCAGCA (sugars e5 d10 e5, PS)
target mRNA inhibition (HepG2, 4 µM): 40%

GACTACTTTATAGGCCAGAC (sugars e5 d10 e5, PS)
target mRNA inhibition (HepG2, 4 µM): 64% and 74% | target mRNA inhibition (HepG2, 12 µM): 80%

GAGGACTGCAACGGAAACCC (sugars e5 d10 e5, PS)
target mRNA inhibition (HepG2, 4 µM): 24%

GATTACAGTGTTTAATG (sugars e2 k2 d8 k2 e3, PS)
target mRNA inhibition (HepG2, 5 µM): 54%

GATTTAAGTCTGGCAAA (sugars e2 k2 d9 k2 e2, PS)
target mRNA inhibition (HepG2, 5 µM): 35%

GCAATGGTCTCCTGAGAGTG (sugars e5 d10 e5, PS)
target mRNA inhibition (HepG2, 5 µM): 57%

GCAGGATAACAGATGAG (sugars e3 k2 d7 k2 e3, PS)
target mRNA inhibition (HepG2, 0.1875 µM): 39% | target mRNA inhibition (HepG2, 0.75 µM): 60% | target mRNA inhibition (HepG2, 3 µM): 58% and 80% | target mRNA inhibition (HepG2, 12 µM): 90%

GCCACGCCGAGGTCCTGGTT (sugars e5 d10 e5, PS)
target mRNA inhibition (HepG2, 4 µM): 38%

GCCCAAGTCTCCAACATGCC (sugars e5 d10 e5, PS)
target mRNA inhibition (HepG2, 5 µM): 61% and 53%

GCCTCAGACTACATCCA (sugars e2 k2 d8 k2 e3, PS)
target mRNA inhibition (HepG2, 4 µM): 69%

GCCTCATAATAAGTGCC (sugars e2 k2 d9 k2 e2, PS)
target mRNA inhibition (HepG2, 5 µM): 33%

GCCTCGCCCACTCTGGCCCC (sugars e5 d10 e5, PS)
target mRNA inhibition (HepG2, 4 µM): 37%

GCTAGCAGGATAACAGA (sugars e2 k2 d9 k2 e2, PS)
target mRNA inhibition (HepG2, 4 µM): 43%

GCTAGCAGGATAACAGA (sugars e3 k2 d7 k2 e3, PS)
target mRNA inhibition (HepG2, 3 µM): 10%

GCTTCCCCACACCTTCAC (sugars e5 d8 e5, linkages s1 o3 s9 o2 s2)
target mRNA inhibition (A431, 0.12 µM): 0% | target mRNA inhibition (A431, 0.6 µM): 1% | target mRNA inhibition (A431, 3 µM): 0% | target mRNA inhibition (A431, 15 µM): 5% | target mRNA inhibition (HepG2, 0.222 µM): 8% | target mRNA inhibition (HepG2, 0.667 µM): 29% | target mRNA inhibition (HepG2, 2 µM): 46% | target mRNA inhibition (HepG2, 6 µM): 76%
